Data published in US7452887B2, “Quinoline- and isoquinoline-based compounds exhibiting ATP-utilizing enzyme inhibitory activity, and compositions, and uses thereof” (Amphora Discovery Corporation, priority 2004, dated 2008).

Biological target: MAPKAPK2 (Homo sapiens, UniProt P49137)
Assay: HTS ATP-utilizing enzyme assay, off-chip mobility-shift (Caliper HTS 250)
Type: biochemical
Settings: test compound 10 μM, kinase listed = active (greater than six-sigma from the mean activity of inactive compounds)
Excerpt: The following procedures describe the reagent and plate preparation for a HTS of an ATP-utilizing enzyme, such as a protein kinase, run in an off-chip mobility-shift assay format. The following provides an HTS protocol for running a protein kinase HTS screen on a Caliper HTS 250 microfluidics system. The following parameters are dependent on the protein kinase used and can be determined by one skilled in the art as part of a typical assay development process. For example, the peptide substrate used can be identified from the current literature, by screening a peptide library of potential protein kinase substrates, or by other applicable means accepted in the field.
The following table provides typical screen assay parameters appropriate for a Caliper HTS 250 microfluidics system.
The reagents and buffers listed in the following table are generally applicable for developing and running an HTS screen on a human protein kinase using the Caliper HTS 250 system.
The following reagents were prepared using the previously described buffers.
A 2× Master Buffer solution was prepared by combining 200 mL of 1 M HEPES, pH 7.5, 2 mL of 10% Triton X-100, 20 mL of 10% BSA, and 778 mL of H2O.
A TCB Buffer solution was prepared by combining 125 mL of 2× Master Buffer, 10 mL of 0.5 M EDTA, 6.25 mL of 4% coating reagent, 1.01 mL of 100% DMSO, and 107.74 mL H2O.
Assays to determine the kinase inhibitory activity of compounds of the present disclosure were performed using a Caliper HTS 250 microfluidics device, Greiner U-bottom assay plates, a Multidrop for transfer of reagents, and Biomek FX (AMNCBM03) software. Initially, 2.4 μL of a 1 mM solution of a test compound in 100% DMSO was added to a well of the Greiner U-bottom plate. A single Greiner U-bottom plate having 24×16 wells could include multiple test compounds. […] Using the Biomek FX, 10 μL of 0.5 M EDTA was added by the span-8 to wells, indicated as 100% Control and 2.4 μL of 100% DMSO was added by the span-8 to wells, indicated as 0% Control. […] The total reaction volume in each well was 25 μL, and the concentration of the test compound was 10 μM. The assay plate was incubated for 2.5 hrs at 20° C. to 22° C. […] The inhibition of the ATP-utilizing enzyme, such as a particular protein kinase, was determined by measuring the ratio of the peptide substrate to phosphorylated product for each well of the assay plate using the Caliper HTS 250 system.
The use of six-sigma statistical limits represents a conservative method for declaring potential hits among targets. The six-sigma activity, as well as the mean population activity, can be different for each target enzyme.

Sequence of MAPKAPK2 (P49137 whole entry): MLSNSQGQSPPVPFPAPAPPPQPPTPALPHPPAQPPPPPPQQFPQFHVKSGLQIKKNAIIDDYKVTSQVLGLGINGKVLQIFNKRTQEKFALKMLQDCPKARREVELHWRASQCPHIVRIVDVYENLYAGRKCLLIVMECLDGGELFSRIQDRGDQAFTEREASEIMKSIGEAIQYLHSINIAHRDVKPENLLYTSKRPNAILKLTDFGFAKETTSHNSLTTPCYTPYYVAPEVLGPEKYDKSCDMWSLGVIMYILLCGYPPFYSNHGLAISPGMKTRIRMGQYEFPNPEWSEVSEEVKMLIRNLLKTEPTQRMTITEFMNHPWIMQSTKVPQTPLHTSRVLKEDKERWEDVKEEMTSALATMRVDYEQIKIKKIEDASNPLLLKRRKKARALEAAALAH

Activity, MAPKAPK2:
N#Cc1ccc(-c2ccc3nccc(Nc4ccc(N5CCN(C6CCCCC6)CC5)cc4)c3c2)cc1 [4-(4-(4-(4-cyclohexylpiperazin-1-yl)phenylamino)quinolin-6-yl)benzonitrile]
COCCN1CCN(c2ccc(Nc3ccnc4ccc(-c5ccccc5)cc34)cc2)CC1 [N-(4-(4-(2-methoxyethyl)piperazin-1-yl)phenyl)-6-phenylquinolin-4-amine]
CCN(CC)C1CCN(c2ccc(Nc3ccnc4ccc(-c5ccc6ccccc6c5)cc34)cc2)C1 (stereo not shown) [N-(4-(3-(diethylamino)pyrrolidin-1-yl)phenyl)-6-(naphthalen-2-yl)quinolin-4-amine]
COc1cccc(-c2ccc3nccc(Nc4ccc(N5CCC(N(C)C)C5)cc4)c3c2)c1 (stereo not shown) [N-(4-(3-(dimethylamino)pyrrolidin-1-yl)phenyl)-6-(3-methoxyphenyl)quinolin-4-amine]
CCCN(c1ccc(N2CCN(C)CC2)cc1)c1ccnc2ccc(-c3ccccc3)cc12 [N-(4-(4-methylpiperazin-1-yl)phenyl)-6-phenyl-N-propylquinolin-4-amine]
CN(C)C1CCN(c2ccc(Nc3ccnc4ccc(-c5ccc(Cl)cc5)cc34)cc2)C1 (stereo not shown) [6-(4-chlorophenyl)-N-(4-(3-(dimethylamino)pyrrolidin-1-yl)phenyl)quinolin-4-amine]
CN(C)[C@@H]1CCN(c2ccc(Nc3ccnc4ccc(-c5ccc(Cl)cc5)cc34)cc2)C1 [(R)-6-(4-chlorophenyl)-N-(4-(3-(dimethylamino)pyrrolidin-1-yl)phenyl)quinolin-4-amine]
Cc1ccc(-c2ccc3nccc(Nc4ccc(N5CCC(N(C)C)C5)cc4)c3c2)nc1 (stereo not shown) [N-(4-(3-(dimethylamino)pyrrolidin-1-yl)phenyl)-6-(5-methylpyridin-2-yl)quinolin-4-amine]
CN(C)CC1CCCN1c1ccc(Nc2ccnc3ccc(-c4ccc(C#N)cc4)cc23)cc1 (stereo not shown) [4-(4-(4-(2-((dimethylamino)methyl)pyrrolidin-1-yl)phenylamino)quinolin-6-yl)benzonitrile]
CN(C)Cc1ccccc1-c1ccc2nccc(Nc3ccc(N4CCN(C)CC4)cc3)c2c1 [6-(2-((dimethylamino)methyl)phenyl)-N-(4-(4-methylpiperazin-1-yl)phenyl)quinolin-4-amine]
CN(C)C1CCN(c2ccc(Nc3ccnc4ccc(-c5ccc6[nH]c(=O)sc6c5)cc34)cc2)C1 (stereo not shown) [6-(4-(4-(3-(dimethylamino)pyrrolidin-1-yl)phenylamino)quinolin-6-yl)benzo[d]thiazol-2(3H)-one]
CN1CCC(N(C)c2ccc(Nc3ccnc4ccc(-c5cnc6ccccc6c5)cc34)cc2)C1 (stereo not shown) [N1-(3,6′-biquinolin-4′-yl)-N4-methyl-N4-(1-methylpyrrolidin-3-yl)benzene-1,4-diamine]
N#Cc1ccc(-c2ccc3nccc(Nc4ccc(N5CCN(C6CCCC6)CC5)cc4)c3c2)cc1 [4-(4-(4-(4-cyclopentylpiperazin-1-yl)phenylamino)quinolin-6-yl)benzonitrile]
CN1CCN(c2ccc(Nc3ccnc4ccc(-c5ccc(C#N)cc5)cc34)nn2)CC1 [4-(4-(6-(4-methylpiperazin-1-yl)pyridazin-3-ylamino)quinolin-6-yl)benzonitrile]
CN(C)C1CCN(c2ccc(Nc3ccnc4ccc(-c5ccc(Cl)nc5)cc34)cc2)C1 (stereo not shown) [6-(6-chloropyridin-3-yl)-N-(4-(3-(dimethylamino)pyrrolidin-1-yl)phenyl)quinolin-4-amine]
Cc1cc(-c2ccc3nccc(Nc4ccc(N5CCC(N(C)C)C5)cc4)c3c2)cnc1Cl (stereo not shown) [6-(6-chloro-5-methylpyridin-3-yl)-N-(4-(3-(dimethylamino)pyrrolidin-1-yl)phenyl)quinolin-4-amine]
CCC(C)N1CCN(c2ccc(Nc3ccnc4ccc(-c5ccc(OC)cc5)cc34)cc2)CC1 (stereo not shown) [N-(4-(4-sec-butylpiperazin-1-yl)phenyl)-6-(4-methoxyphenyl)quinolin-4-amine]
COc1ccc(-c2ccc3nccc(Nc4ccc(N5CCN(C6CCCC6)CC5)cc4)c3c2)cc1 [N-(4-(4-cyclopentylpiperazin-1-yl)phenyl)-6-(4-methoxyphenyl)quinolin-4-amine]
CN(C)CCN1CCN(c2ccc(Nc3ccnc4ccc(-c5ccccc5)cc34)cc2)CC1 [N-(4-(4-(2-(dimethylamino)ethyl)piperazin-1-yl)phenyl)-6-phenylquinolin-4-amine]
CN(C)[C@@H]1CCN(c2ccc(Nc3ccnc4ccc(-c5ccc(C#N)cc5)cc34)cc2)C1 [(R)-4-(4-(4-(3-(dimethylamino)pyrrolidin-1-yl)phenylamino)quinolin-6-yl)benzonitrile]
CCCCN1CCN(c2ccc(Nc3ccnc4ccc(-c5ccc(OC)cc5)cc34)cc2)CC1 [N-(4-(4-butylpiperazin-1-yl)phenyl)-6-(4-methoxyphenyl)quinolin-4-amine]
CN(C)CC1CCCN(c2ccc(Nc3ccnc4ccc(-c5ccc(C#N)cc5)cc34)cc2)C1 (stereo not shown) [4-(4-(4-(3-((dimethylamino)methyl)piperidin-1-yl)phenylamino)quinolin-6-yl)benzonitrile]
CC(=O)N1CCc2cc(-c3ccc4nccc(Nc5ccc(N6CCC(N(C)C)C6)cc5)c4c3)ccc21 (stereo not shown) [1-(5-(4-(4-(3-(dimethylamino)pyrrolidin-1-yl)phenylamino)quinolin-6-yl)indolin-1-yl)ethanone]
CN(C)C1CCN(c2ccc(Nc3ccnc4ccc(-c5cccc(Cl)c5)cc34)cc2)C1 (stereo not shown) [6-(3-chlorophenyl)-N-(4-(3-(dimethylamino)pyrrolidin-1-yl)phenyl)quinolin-4-amine]
CN1CCN(c2ccc(Nc3ccnc4ccc(-c5ccc(C(F)(F)F)cc5C(F)(F)F)cc34)cc2)CC1 [6-(2,4-bis(trifluoromethyl)phenyl)-N-(4-(4-methylpiperazin-1-yl)phenyl)quinolin-4-amine]
CN1CCN(c2ccc(Nc3ccnc4ccc(-c5cncnc5)cc34)cc2)CC1 [N-(4-(4-methylpiperazin-1-yl)phenyl)-6-(pyrimidin-5-yl)quinolin-4-amine]
CN(C)C1CCN(c2ccc(Nc3ccnc4ccc(-c5csc6ccccc56)cc34)cc2)C1 (stereo not shown) [6-(benzo[b]thiophen-3-yl)-N-(4-(3-(dimethylamino)pyrrolidin-1-yl)phenyl)quinolin-4-amine]
CN(C)C1CCN(c2ccc(Nc3ccnc4ccc(-c5cncc(C(=O)O)c5)cc34)cc2)C1 (stereo not shown) [5-(4-(4-(3-(dimethylamino)pyrrolidin-1-yl)phenylamino)quinolin-6-yl)nicotinic acid]
CN(C)C1CCN(c2ccc(Nc3ccnc4ccc(-c5ccc(OC(F)F)cc5)cc34)cc2)C1 (stereo not shown) [6-(4-(difluoromethoxy)phenyl)-N-(4-(3-(dimethylamino)pyrrolidin-1-yl)phenyl)quinolin-4-amine]
CN1CCN(c2ccc(Nc3ccnc4ccc(-c5ccc(Cl)s5)cc34)cc2)CC1 [6-(5-chlorothiophen-2-yl)-N-(4-(4-methylpiperazin-1-yl)phenyl)quinolin-4-amine]
CN1CCN(c2ccc(Nc3ccnc4ccc(-c5ccccc5C(N)=O)cc34)cc2)CC1 [2-(4-(4-(4-methylpiperazin-1-yl)phenylamino)quinolin-6-yl)benzamide]
CN(C)C1CCN(c2ccc(Nc3ccnc4ccc(-c5ccc6[nH]ccc6c5)cc34)cc2)C1 (stereo not shown) [N-(4-(3-(dimethylamino)pyrrolidin-1-yl)phenyl)-6-(1H-indol-5-yl)quinolin-4-amine]
c1ccc(-c2ccc3nccc(Nc4ccc(N5CCN(C6CCCC6)CC5)cc4)c3c2)cc1 [N-(4-(4-cyclopentylpiperazin-1-yl)phenyl)-6-phenylquinolin-4-amine]
CN1CCC(N(C)c2ccc(Nc3ccnc4ccc(-c5ccc(C#N)cc5)cc34)cc2)C1 (stereo not shown) [4-(4-(4-(methyl(1-methylpyrrolidin-3-yl)amino)phenylamino)quinolin-6-yl)benzonitrile]
